Results taken from patent US20230242552A1, “Nitrogen-Containing Heterocyclic Compound, Preparation Method Therefor and Use Thereof” (280 Bio, Inc, priority 2022, published 2023).

Columns and labels:
Conditions in all cases: CellTiter Glo, 120 hours incubation
[1] = system: AGS (gastric cancer cell line with KRAS G12D mutation); experiment: Proliferation inhibition measured by CTG, AGS; assay type: cell-based
Method: (§1) NCI-H358 is a human non-small cell lung cancer cell line with KRAS G12C mutation; AGS is a gastric cancer cell line with KRAS G12D mutation; SW480 is a colon cancer cell lines with KRAS G12V mutation; A375 is a wild type malignant melanoma cell line. The proliferation inhibitory effect of the compounds on various mutations was evaluated by determining the proliferation inhibitory activity of the compounds on these cell lines.
(§2) The assay was conducted on either 384-well plates or 96-well plates. The procedures are as follows:
(§3) The cell suspensions were added to 384- or 96-well plates (384-well plate: 40 μL; 96-well plate: 100 μL) except for peripheral wells. The plates were incubated in a carbon dioxide incubator overnight. Prepared compounds (10 concentration gradients by serial 3-fold dilution) were added to the wells. The cell plates were incubated in a carbon dioxide incubator for 120 hours. CellTiter Glo reagent (384 well plate: 25 μL; 96 well plate: 100 μL) was added to the 384- or 96-well plates. The plates were shaken for 10 minutes away from light, and incubated for 10 minutes. The plates were read by EnVision system. Inhibition curves were plotted using XLFit and IC50 values were calculated. “IC50>10 μM” is denoted by “*”, “10 μM≥IC50>1 μM” is denoted by […] is denoted by “***”, “---” means no data.

[2] = system: NCI-H358 (KRAS G12C mutation); experiment: Proliferation inhibition measured by CTG, NCI-H358; assay type: cell-based, human
Method: as §1, §2, §3

[3] = system: A375 (wild type malignant melanoma cell line); experiment: Proliferation inhibition measured by CTG, A375; assay type: cell-based
Method: as §1, §2, §3

[4] = system: SW480 (colon cancer cell lines with KRAS G12V mutation); experiment: Proliferation inhibition measured by CTG, SW480; assay type: cell-based
Method: as §1, §2, §3

| IC50 ([1]; 120 h) [nM] | IC50 ([2]; Homo sapiens, NCI-H358, 120 h) [nM] | IC50 ([3]; Homo sapiens, A-375, 120 h) [nM] | IC50 ([4]; Homo sapiens, SW480, 120 h) [nM] | IC50 [1] [nM] | IC50 [4] [nM] | IC50 [2] [nM] | IC50 [3] [nM] | Structure (SMILES) |
| --- | --- | --- | --- | --- | --- | --- | --- | --- |
| 1000 to 10000 | 1000 to 10000 | 1000 to 10000 | – | – | – | – | – | COc1cc2c(cn1)CCN(c1nc(OC[C@@H]3CCCN3C)nc3c1CCN(c1cccc4cccc(Cl)c14)C3)C2 [Compound 2] |
| 1000 to 10000 | 1000 to 10000 | 1000 to 10000 | 1000 to 10000 | – | – | – | – | C[C@@H](CN(C)C)Oc1nc2c(c(N3Cc4c(F)cncc4C[C@@H]3C)n1)CCN(c1cccc3cccc(F)c13)C2 [Compound 26] |
| ≤ 1000 | 1000 to 10000 | 1000 to 10000 | 1000 to 10000 | – | – | – | – | C[C@H]1Cc2cncc(F)c2CN1c1nc(OC[C@@H]2CCCN2C)nc2cc(-c3cccc4cccc(F)c34)ccc12 [Compound 21] |
| 1000 to 10000 | 1000 to 10000 | 1000 to 10000 | 1000 to 10000 | – | – | – | – | CC1Cc2cnccc2CN1c1nc(OC[C@@H]2CCCN2C)nc2c1CCN(c1cccc3cccc(Cl)c13)C2 (some centres unmarked) [Compound 3-1] |
| – | – | – | – | ≤ 1000 | ≤ 1000 | ≤ 1000 | ≤ 1000 | CC1Cc2cncc(F)c2CN1c1nc(OC[C@@H]2CCCCN2C)nc2c1CCN(c1cccc3cccc(Cl)c13)C2 (some centres unmarked) [Compound 9-2] |
| ≤ 1000 | 1000 to 10000 | 1000 to 10000 | ≤ 1000 | – | – | – | – | C[C@H]1Cc2cncc(F)c2CN1c1nc(OC[C@@H]2CCCN2C)nc2cc(-c3cccc4cccc(Cl)c34)ccc12 [Compound 20] |
| ≤ 1000 | – | – | ≤ 1000 | – | – | – | – | CC1Cc2cncc(F)c2CN1c1nc(OC[C@@H]2CCCN2C)nc2c1CCN(c1cc(O)cc3cccc(Cl)c13)C2 (some centres unmarked) [Compound 5] |
| 1000 to 10000 | 1000 to 10000 | > 10000 | 1000 to 10000 | – | – | – | – | C[C@H]1Cc2cncc(F)c2CN1c1nc(OC[C@@H]2CCCN2C)nc2c1CCN(c1cccc3cnccc13)C2 [Compound 19] |
| 1000 to 10000 | 1000 to 10000 | > 10000 | 1000 to 10000 | – | – | – | – | C[C@H]1Cc2cncc(F)c2CN1c1nc(OC[C@@H]2CCCN2C)nc2c1CCN(c1cncc3ccccc13)C2 [Compound 13] |
| ≤ 1000 | ≤ 1000 | ≤ 1000 | ≤ 1000 | – | – | – | – | C[C@@H]1Cc2cncc(F)c2CN1c1nc(OC[C@H]2CCCCN2C)nc2c1CCN(c1cccc3cccc(F)c13)C2 [Compound 30] |
| – | ≤ 1000 | ≤ 1000 | – | – | – | – | – | CN1CCC[C@H]1COc1nc2c(c(N3CCc4cnccc4C3)n1)CCN(c1cccc3cccc(Cl)c13)C2 [Compound 1] |
| ≤ 1000 | – | – | ≤ 1000 | – | – | – | – | CC1Cc2cnccc2CN1c1nc(OC[C@@H]2CCCN2C)nc2c1CCN(c1cc(O)cc3cccc(Cl)c13)C2 (some centres unmarked) [Compound 6] |
| – | – | – | – | ≤ 1000 | ≤ 1000 | ≤ 1000 | ≤ 1000 | CC1Cc2cnccc2CN1c1nc(OC[C@@H]2CCCN2C)nc2c1CCN(c1cccc3cccc(Cl)c13)C2 (some centres unmarked) [Compound 3] |
| 1000 to 10000 | 1000 to 10000 | 1000 to 10000 | 1000 to 10000 | – | – | – | – | C[C@H]1Cc2cncc(F)c2CN1c1nc(OC[C@@H]2CCCN2C)nc2c1CCN(c1ccnc3ccccc13)C2 [Compound 16] |
| 1000 to 10000 | 1000 to 10000 | 1000 to 10000 | 1000 to 10000 | – | – | – | – | C[C@H]1Cc2cncc(F)c2CN1c1nc(OC[C@@H]2CN(C)CCN2C)nc2c1CCN(c1cccc3cccc(F)c13)C2 [Compound 25] |
| ≤ 1000 | ≤ 1000 | ≤ 1000 | ≤ 1000 | – | – | – | – | C[C@H]1Cc2cncc(F)c2CN1c1nc(OC[C@@H]2CCCCN2C)nc2c1CCN(c1cccc3cccc(F)c13)C2 [Compound 12] |
| – | 1000 to 10000 | 1000 to 10000 | – | ≤ 1000 | 1000 to 10000 | – | – | CC1Cc2cncc(F)c2CN1c1nc(OC[C@@H]2CCCN2C)nc2c1CCN(c1cccc3cccc(Cl)c13)C2 (single isomer, unassigned) [Compound 4-1] |

| IC50 ([1]; 120 h) [nM] | IC50 ([2]; Homo sapiens, NCI-H358, 120 h) [nM] | IC50 ([3]; Homo sapiens, A-375, 120 h) [nM] | IC50 ([4]; Homo sapiens, SW480, 120 h) [nM] | IC50 [1] [nM] | IC50 [4] [nM] | IC50 [2] [nM] | IC50 [3] [nM] | Structure (SMILES) |
| --- | --- | --- | --- | --- | --- | --- | --- | --- |
| ≤ 1000 | ≤ 1000 | ≤ 1000 | ≤ 1000 | – | – | – | – | C[C@@H]1Cc2cncc(F)c2CN1c1nc(OC[C@H]2CCCN2C)nc2c1CCN(c1cccc3cccc(F)c13)C2 [Compound 31] |
| – | – | – | – | ≤ 1000 | – | 1000 to 10000 | 1000 to 10000 | CC1Cc2cncc(F)c2CN1c1nc(OC[C@@H]2CCCN2C)nc2c1CO[C@H](c1cccc3cccc(Cl)c13)C2 (single isomer, unassigned) [Compound 11-2] |
| ≤ 1000 | ≤ 1000 | 1000 to 10000 | ≤ 1000 | – | – | – | – | C[C@H]1Cc2cncc(F)c2CN1c1nc(OC[C@@H]2CCCN2C)nc2c1CCN(c1cccc3cccc(F)c13)C2 [Compound 15] |
| – | – | – | – | ≤ 1000 | ≤ 1000 | ≤ 1000 | ≤ 1000 | CC1Cc2cncc(F)c2CN1c1nc(OC[C@@H]2CCCN2C)nc2c1CCN(c1cccc3cccc(Cl)c13)C2 (single isomer, unassigned) [Compound 4-2] |
| ≤ 1000 | ≤ 1000 | ≤ 1000 | ≤ 1000 | – | – | – | – | C[C@@H]1Cc2cncc(F)c2CN1c1nc(OC[C@@H]2CCCN2C)nc2cc(-c3ccc(F)c4sc(N)nc34)ccc12 [Compound 27] |
| – | – | – | – | ≤ 1000 | ≤ 1000 | ≤ 1000 | ≤ 1000 | CC1Cc2cnccc2CN1c1nc(OC[C@@H]2CCCN2C)nc2c1CCN(c1cccc3cccc(Cl)c13)C2 (some centres unmarked) [Compound 3-2] |
| ≤ 1000 | – | ≤ 1000 | – | – | – | – | – | C[C@@H]1Cc2cncc(F)c2CN1c1nc(OC[C@@H]2CCCN2C)nc2c1CCN(c1cncc3cccc(Cl)c13)C2 [Compound 34] |
| – | – | – | – | 1000 to 10000 | – | 1000 to 10000 | 1000 to 10000 | CC1Cc2cncc(F)c2CN1c1nc(OC[C@@H]2CCCN2C)nc2c1CO[C@H](c1cccc3cccc(Cl)c13)C2 (single isomer, unassigned) [Compound 11-1] |
| ≤ 1000 | ≤ 1000 | 1000 to 10000 | ≤ 1000 | – | – | – | – | C[C@@H]1Cc2cncc(F)c2CN1c1nc(O[C@@H](C)CN(C)C)nc2c1CCN(c1cccc3cccc(F)c13)C2 [Compound 29] |
| ≤ 1000 | ≤ 1000 | ≤ 1000 | ≤ 1000 | – | – | – | – | CC1Cc2cncc(F)c2CN1c1nc(OC[C@@H]2CCCCN2C)nc2c1CCN(c1cccc3cccc(Cl)c13)C2 (some centres unmarked) [Compound 9-1] |
| – | ≤ 1000 | ≤ 1000 | – | – | – | – | – | CC1Cc2cncc(F)c2CN1c1nc(OC[C@@H]2CCCN2C)nc2c1CCN(c1cc(O)cc3cccc(Cl)c13)C2 (some centres unmarked) [Compound 5-1] |
| – | – | – | – | – | – | ≤ 1000 | ≤ 1000 | CC1Cc2cncc(F)c2CN1c1nc(OC[C@@H]2CCCN2C)nc2c1CCN(c1cc(O)cc3cccc(Cl)c13)C2 (some centres unmarked) [Compound 5-2] |
| ≤ 1000 | ≤ 1000 | 1000 to 10000 | ≤ 1000 | – | – | – | – | C[C@H]1Cc2cncc(F)c2CN1c1nc(OC[C@H]2CCCN2C)nc2c1CCN(c1cccc3cccc(F)c13)C2 [Compound 22] |
| ≤ 1000 | – | – | ≤ 1000 | – | – | – | – | CC1Cc2cncc(F)c2CN1c1nc(OC[C@@H]2CCCN2C)nc2c1CCN(c1cccc3cccc(Cl)c13)C2 (some centres unmarked) [Compound 4] |
| ≤ 1000 | – | ≤ 1000 | – | – | – | – | – | C[C@@H]1Cc2cncc(F)c2CN1c1nc(OC[C@@H]2CCCN2C)nc2c1CCN(c1cccc3cccc(F)c13)C2 [Compound 35] |
| ≤ 1000 | 1000 to 10000 | 1000 to 10000 | – | – | – | – | – | CC1Cc2cncc(F)c2CN1c1nc(OC[C@@H]2CCCN2C)nc2c1CO[C@H](c1cccc3cccc(Cl)c13)C2 (some centres unmarked) [Compound 11] |
| ≤ 1000 | – | – | – | – | – | – | – | C[C@@H]1Cc2cncc(F)c2CN1c1nc(OC[C@@H]2CCCCN2C)nc2c(F)c(-c3cccc4cccc(F)c34)ncc12 [Compound 36] |
